The record followed here is patent publication US20240109881A1, “Heteroaryl Compounds as Ligand Directed Degraders of IRAK4” (Bristol-Myers Squibb Company, priority 2022, published 2024).

The target in this assay is T1, IRAK4 (Homo sapiens, UniProt Q9NWZ3).
T1 construct: endogenous in cells; host or cells: THP-1 cells
T1 sequence (Q9NWZ3 1-460): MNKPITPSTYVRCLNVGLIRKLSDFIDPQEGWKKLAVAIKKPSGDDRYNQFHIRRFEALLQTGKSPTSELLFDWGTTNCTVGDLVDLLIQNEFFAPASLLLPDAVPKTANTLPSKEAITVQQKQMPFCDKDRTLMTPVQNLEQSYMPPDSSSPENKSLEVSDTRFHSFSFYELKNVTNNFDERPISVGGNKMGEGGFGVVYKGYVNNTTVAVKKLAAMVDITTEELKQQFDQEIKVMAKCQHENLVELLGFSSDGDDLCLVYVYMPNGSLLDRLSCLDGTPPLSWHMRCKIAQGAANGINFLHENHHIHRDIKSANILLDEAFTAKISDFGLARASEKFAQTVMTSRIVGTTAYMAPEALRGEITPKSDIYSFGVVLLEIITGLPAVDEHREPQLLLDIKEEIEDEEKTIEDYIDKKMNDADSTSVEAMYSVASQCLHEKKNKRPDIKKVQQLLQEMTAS
Put plainly: LVL THP1 HTRF (THP1 Homogeneous Time Resolved Fluorescence). Type of assay: cell-based. As to conditions: THP1 cells, 18 h incubation with compound; for DC50: read-out: LVL THP1 HTRF EC50. As for the experimental part: Cell culture media was prepared in a tissue culture hood in a sterile environment by adding 10% FBS and 1% Penicillin Streptomycin to 500 mL no phenol red RPMI 1640 media. The media was filtered through a Nalgene Bottle Top Filter and stored at 4° C.
For Homogenous Time Resolved Fluorescence (HTRF) assays, a Cisbio HTRF kit was used, which included: Lysis Buffer #1 4×, Blocking Reagent #3 100×, 20× Antibody 1 (Anti-IRAK4 d2), 20× Antibody 2 (Anti-IRAK4 k), and Detection Buffer.
The THP1 plates were prepared by the following method. For each dosing plate, a duplicate for CTG assay was prepared. Two THP-1 T-175 flasks could be used to plate one 384 well plate. The cells were collected from two T-175 flasks into 200 mL centrifuge tubes and spun down at 1200 rpm for 10 min. The supernatant was removed completely and cells were resuspended in 7.5 mL cell culture media. To 5 μL of the cell suspension was added 25 μL of media and 30 μL of Trypan Blue stain. The cells were counted using countess (automated cell counter, Thermo Fisher Scientific) twice and the viability and live cell count was recorded. The actual cell count was […] the live cell count. Based on the count, a cell suspension was prepared in colorless RPMI media for a final concentration of 7.5e6 cells/mL. Using Standard cassette multidrop combi, 20 μL of the 7.5e6 cells/mL cell stock was added to entire 384 well plate but for top half of column 1 (negative control) The multidrop combi was always primed to achieve a steady flow and washed after use with 20 mL de-ionized water followed by 20 mL alcohol. The cells were incubated in 5% CO2 incubator at 37° C.
Dosing was conducted using the following method. To dose assay plates and CTG plate was added 20 nL of compounds in DMSO using Echo (Beckman Coulter), and the plates were incubated at 37° C. for 18 h. The compound plates were spun at 1200 rpm for 1 min before dosing. The compound plate was sealed and properly stored during incubation.
After dosing, an HTRF assay was conducted using the following method. The treatment plates (IRAK4_HTRF) were centrifuged at 600 g for 10 min. Using CyBio Felix, Automated liquid handler (Analytikjena), 13 μL cell culture media was removed. To all columns, 7.5 μL lysis buffer was added, and an additional 7.5 μL of lysis buffer was added to column 1(top half, negative control). The plate was incubated on a shaker at room temperature for 2 h. The plate was spun down at 600 g for 5 min. Custom 20×IRAK4 Antibody obtained from CISBIO Anti-IRAK4-d2 (acceptor Ab) and Anti-IRAK4-K (donor Ab) were diluted to 1× antibody mix Using a multichannel repeater, 4 μL of 1× antibody mix was added to each wellThe plate was spun down at 600 g for 5 min and incubated in the dark at room temperature for 18 h The next day (after 18 hrs), HTRF assay plate was spun down at 600 g for 5 min and read at 665/615 nm using a Envision plate reader.

Take `C[C@H](C#N)Nc1cc(-n2ncc3cc(C#N)cnc32)ncc1-n1cc([C@H]2CC[C@H](CCN3CCN(c4ccc(C5(C)CCC(=O)NC5=O)cc4)CC3)CC2)nn1` (single isomer, unassigned) [P-204]: the “LVL THP1 HTRF YMIN” value is listed as 1.8% and the DC50 worked out at 7 nM.

Turning to `C[C@H](C#N)Nc1cc(-n2ncc3cc(C#N)cnc32)ncc1-n1cc(C2CCC(CCN3CCN(c4ccc(C5CCC(=O)NC5=O)cc4)C4COCC43)CC2)nn1` (single isomer, unassigned) [P-235], the “LVL THP1 HTRF YMIN” value amounted to 2.6% and the DC50 turned out to be 29 nM.

As for `C[C@H](C#N)Nc1cc(-n2ncc3cc(C#N)cnc32)ncc1-n1cc(C2CCC(CCN3CCN(c4ccc(C5CCC(=O)NC5=O)cc4)C4COCC43)CC2)nn1` (single isomer, unassigned) [P-237], the “LVL THP1 HTRF YMIN” value came to 2.8% and the DC50 stood at 7 nM.

Consider `C[C@H](C#N)Nc1cc(-n2ncc3cc(C#N)c(N)nc32)ncc1C(=O)N[C@H]1CC[C@H](CCN2CCN(c3ccc([C@@]4(C)CCC(=O)NC4=O)cn3)[C@@H](C)C2)CC1` (single isomer, unassigned) [P-249], for which the “LVL THP1 HTRF YMIN” value was 1.9% and the DC50 came to 2.3 nM.

Regarding `C[C@H](C#N)Nc1cc(-n2ncc3cc(C#N)c(N)nc32)ncc1-n1cc([C@H]2CC[C@H](CCN3[C@@H](C)CN(c4ccc([C@@]5(C)CCC(=O)NC5=O)cn4)C[C@@H]3C)CC2)nn1` (single isomer, unassigned) [P-252], the “LVL THP1 HTRF YMIN” value is given as 1.7% and the DC50 is 5.4 nM.

Turning to `C[C@H](C#N)Nc1cc(-n2ncc3cc(C#N)c(N)nc32)ncc1-n1cc([C@H]2CC[C@H](CCN3[C@H](C)CN(c4ccc([C@@]5(C)CCC(=O)NC5=O)cn4)C[C@H]3C)CC2)nn1` (single isomer, unassigned) [P-253], the “LVL THP1 HTRF YMIN” value is on record as 9.4% and the DC50 was determined as 48.7 nM.

On to `C[C@H](C#N)Nc1cc(-n2ncc3cc(C#N)c(N)nc32)ncc1-n1cc([C@H]2CC[C@H](CCN3[C@@H](C)CN(c4ccc([C@@]5(C)CCC(=O)NC5=O)cn4)C[C@@H]3C)CC2)nn1` (single isomer, unassigned) [P-254], for which the “LVL THP1 HTRF YMIN” value worked out at 91.0% and the DC50 is 21.7 nM.

Turning to `C[C@H](C#N)Nc1cc(-n2ncc3cc(C#N)c(N)nc32)ncc1-n1cc([C@H]2CC[C@H](CCN3[C@H](C)CN(c4ccc([C@@]5(C)CCC(=O)NC5=O)cn4)C[C@H]3C)CC2)nn1` (single isomer, unassigned) [P-255], the “LVL THP1 HTRF YMIN” value is 90.4% and the DC50 amounted to 12.4 nM.

On to `C[C@H](C#N)Nc1cc(-n2ncc3cc(C#N)c(N)nc32)ncc1-n1cc([C@H]2CC[C@H](CCN3CCN(c4ccc([C@@]5(C)CCC(=O)NC5=O)nc4)[C@@H](C)C3)CC2)nn1` (single isomer, unassigned) [P-257], for which the “LVL THP1 HTRF YMIN” value is 34.7% and the DC50 was 92.8 nM.

In the case of `C[C@H](C#N)Nc1cc(-n2ncc3cc(C#N)c(N)nc32)ncc1-n1cc([C@H]2CC[C@H](CCN3CCN(c4ccc([C@@]5(C)CCC(=O)NC5=O)cn4)[C@@H](C)C3)CC2)nn1` (single isomer, unassigned) [P-258], the “LVL THP1 HTRF YMIN” value came out at 2.0% and the DC50 came out at 6.9 nM.

For the compound `C[C@H](C#N)Nc1cc(-n2ncc3cc(C#N)c(N)nc32)ncc1-n1cc([C@H]2CC[C@H](CCN3CCN(c4ccc([C@@]5(C)CCC(=O)NC5=O)cn4)[C@@H](C)C3)CC2)nn1` (single isomer, unassigned) [P-259], the “LVL THP1 HTRF YMIN” value stood at 89.5% and the DC50 stood at 26.1 nM.

For the compound `C[C@H](C#N)Nc1cc(-n2ncc3cc(C#N)c(N)nc32)ncc1-n1cc([C@H]2CC[C@H](CCN3CCN(c4ccc([C@@]5(C)CCC(=O)NC5=O)cn4)[C@H](C)C3)CC2)nn1` (single isomer, unassigned) [P-262], the “LVL THP1 HTRF YMIN” value is given as 8.7% and the DC50 came out at 17.1 nM.

In the case of `C[C@H](C#N)Nc1cc(-n2ncc3cc(C#N)c(N)nc32)ncc1-n1cc([C@H]2CC[C@H](CCN3CCN(c4cnc([C@@]5(C)CCC(=O)NC5=O)nc4)CC3)CC2)nn1` (single isomer, unassigned) [P-263], the “LVL THP1 HTRF YMIN” value worked out at 9.0% and the DC50 turned out to be 25.7 nM.

For `C[C@H](C#N)Nc1cc(-n2ncc3cc(C#N)c(N)nc32)ncc1-n1cc([C@H]2CC[C@H](CCN3CCN(c4cnc([C@@]5(C)CCC(=O)NC5=O)nc4)CC3)CC2)nn1` (single isomer, unassigned) [P-264], the “LVL THP1 HTRF YMIN” value is reported as 94.6% and the DC50 was 7.2 nM.

With `C[C@H](C#N)Nc1cc(-n2ncc3cc(C#N)c(N)nc32)ncc1-n1cc([C@H]2CC[C@H](CCN3CCN(c4ccc([C@@]5(C)CCC(=O)NC5=O)cn4)CC3)CC2)nn1` (single isomer, unassigned) [P-265], the “LVL THP1 HTRF YMIN” value amounted to 93.2% and the DC50 was determined as 1000 nM.

As to `C[C@H](C#N)Nc1cc(-n2ncc3cc(C#N)c(N)nc32)ncc1-n1cc([C@H]2CC[C@H](CCN3CCN(c4cnc([C@@]5(C)CCC(=O)NC5=O)cn4)CC3)CC2)nn1` (single isomer, unassigned) [P-267], the “LVL THP1 HTRF YMIN” value amounted to 54.7% and the DC50 turned out to be 94.7 nM.

For the compound `C[C@H](C#N)Nc1cc(-n2ncc3cc(C#N)c(N)nc32)ncc1-n1cc([C@H]2CC[C@H](CCN3CCN(c4cnc([C@@]5(C)CCC(=O)NC5=O)cn4)CC3)CC2)nn1` (single isomer, unassigned) [P-268], the “LVL THP1 HTRF YMIN” value is reported as −0.2% and the DC50 is 2.1 nM.

In the case of `C[C@H](C#N)Nc1cc(-n2ncc3cc(C#N)cnc32)ncc1C(=O)N[C@H]1CC[C@H](CCN2CCN(c3ccc([C@@]4(C)CCC(=O)NC4=O)cn3)[C@@H](C)C2)CC1` (single isomer, unassigned) [P-276], the “LVL THP1 HTRF YMIN” value was 6.0% and the DC50 was determined as 11.4 nM.

For `C[C@H](C#N)Nc1cc(-n2ncc3cc(C#N)cnc32)ncc1-n1cc([C@H]2CC[C@](O)(CCN3CCN(c4ccc([C@@]5(C)CCC(=O)NC5=O)nc4)CC3)CC2)nn1` (single isomer, unassigned) [P-280], the “LVL THP1 HTRF YMIN” value came out at 47.7% and the DC50 stood at 107 nM.

For `C[C@H](C#N)Nc1cc(-n2ncc3cc(C#N)cnc32)ncc1-n1cc([C@H]2CC[C@H](CCN3C[C@@H]4CN(c5ccc([C@@]6(C)CCC(=O)NC6=O)cc5)C[C@@H]4C3)CC2)nn1` (single isomer, unassigned) [P-281], the “LVL THP1 HTRF YMIN” value is reported as 24.0% and the DC50 amounted to 106 nM.

For `C[C@H](C#N)Nc1cc(-n2ncc3cc(C#N)cnc32)ncc1-n1cc([C@H]2CC[C@H](CCN3CC[C@H](c4ccc([C@@]5(C)CCC(=O)NC5=O)cc4)C[C@H]3C)CC2)nn1` (single isomer, unassigned) [P-282], the “LVL THP1 HTRF YMIN” value came out at 1.0% and the DC50 worked out at 3.4 nM.

In the case of `C[C@H](C#N)Nc1cc(-n2ncc3cc(C#N)cnc32)ncc1-n1cc([C@H]2CC[C@H](CCN3CC[C@@H](c4ccc([C@@]5(C)CCC(=O)NC5=O)cc4)C[C@@H]3C)CC2)nn1` (single isomer, unassigned) [P-283], the “LVL THP1 HTRF YMIN” value amounted to 5.2% and the DC50 came to 5.7 nM.

On to `C[C@H](C#N)Nc1cc(-n2ncc3cc(C#N)cnc32)ncc1-n1cc([C@H]2CC[C@H](CCN3CC[C@H]4[C@@H]3CCN4c3ccc([C@@]4(C)CCC(=O)NC4=O)nc3)CC2)nn1` (single isomer, unassigned) [P-286], for which the “LVL THP1 HTRF YMIN” value was determined as 6.6% and the DC50 came to 8.5 nM.
